Test results from BigSolDB 2.1.

C[C@H](O)[C@@H](O)[C@@H](O)[C@H](O)C=O
solubility (mole fraction)
Settings | in acetone | in ethanol | in isopropanol | in methanol | in water
288.15 K | 0.00023 | 0.00032 | 0.00014 | 0.00216 | 0.0512
293.15 K | 0.00025 | 0.00038 | 0.00024 | 0.00244 | –
298.15 K | 0.00028 | 0.00043 | 0.00032 | 0.00275 | 0.0979
303.15 K | 0.00032 | 0.00057 | 0.00043 | 0.00307 | 0.129
308.15 K | 0.00038 | 0.00071 | 0.00056 | 0.00345 | 0.174
